The values that follow come from publication PMC2990348 (Journal of medicinal chemistry, 2010).

Entries after “also recorded” stand apart in the source; their conditions may differ. Read-outs that look alike come from different tables or passages of the source.

One data set concerns DENV2 replicon. Type of data set: cell-based, dengue virus type 2.
Data set [1] concerns poliovirus (PV).
Data set [2] deals with T1, PV RdRP (Poliovirus type 1, UniProt P03300). Type of data set: biochemical.
Data set [3] addresses T2, PV RdRP (3D^pol) (Poliovirus type 1, UniProt P03300). The format is biochemical.
In data set [4] the target is T2, PV RdRP (3D^pol). The format is biochemical. This is another data set of the same source.
Data set [5] has as its target T1, PV RdRP. As to conditions: cited from earlier work.
In data set [6] the test system is poliovirus (PV). Put plainly: in vitro. The settings on record: human.
A short description of the next data set: in vitro. The settings on record: human.
Another data set relates to hepatitis C virus (HCV). The settings on record: read-out: IC50, replication of hepatitis C virus; cited from earlier work.
Data set [7] has as its system dengue virus type 2 (DENV2). The settings on record: read-out: IC50, dengue virus type 2; cited from earlier work.

As usually defined, the viability is a per cent measure of how many cells are alive, often set against a control. Read a high viability as less harm to the cells. The IC50 is the concentration that inhibits the measured activity by half.

T1 sequence (P03300 1749-2209 limits assumed): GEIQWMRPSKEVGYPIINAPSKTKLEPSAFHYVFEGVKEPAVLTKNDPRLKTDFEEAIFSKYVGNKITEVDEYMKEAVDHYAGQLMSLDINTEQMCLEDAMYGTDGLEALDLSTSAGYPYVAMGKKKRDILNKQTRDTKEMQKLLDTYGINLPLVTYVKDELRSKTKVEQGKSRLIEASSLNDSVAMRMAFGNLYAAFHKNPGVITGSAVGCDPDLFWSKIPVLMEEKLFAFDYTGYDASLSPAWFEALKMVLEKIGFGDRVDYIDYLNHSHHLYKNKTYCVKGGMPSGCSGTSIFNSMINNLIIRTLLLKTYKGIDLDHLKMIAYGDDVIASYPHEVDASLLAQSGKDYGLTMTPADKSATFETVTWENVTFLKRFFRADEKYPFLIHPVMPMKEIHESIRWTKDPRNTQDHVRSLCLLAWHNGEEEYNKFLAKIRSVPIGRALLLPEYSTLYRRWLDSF
T2 sequence (P03300 1749-2209 limits assumed): as above

Turning to `COC[C@H]1O[C@@H](n2ccc3c(C)ncnc32)[C@H](O)[C@@H]1O` [Compound 7, 4-Methyl-7-(5'-O-methyl-β-D-ribofuranosyl)pyrrolo[2,3-d]pyrimidine], the “Inhibition of DENV2 replicon activity” value in the data set on DENV2 replicon is on record as “essentially no inhibition”. In addition, in the data set on poliovirus (PV) [1], the “Antiviral activity in plaque assays of infectivity” value is reported as “eliminated the antiviral effect” and the “Reduction of biological activity on methylation of the 5'-alcohol of 6” value was “over 1000 fold”. Moreover, in the data set with HeLa S3 cells, the “Cytotoxic effects to HeLa cells after 7 h” value (from here on “Cytotoxic effects”) was “little cytotoxicity” and the “Cytotoxicity” value is reported as “essentially no cytotoxicity”.

In the case of `Cc1nccc2c1ncn2[C@@H]1O[C@H](CO)[C@@H](O)[C@H]1O` [Compound 5, 3-deaza-6-methyl-9-β-D-ribofuranosylpurine], the “Inhibition of DENV2 replicon activity” value with DENV2 replicon was “essentially no inhibition”. In the data set on poliovirus (PV) [1], the “Activity against PV” value was “inactive” and the “Antiviral activity in plaque assays of infectivity” value is “essentially inactive”. Also, the “Cytotoxicity” value in the data set with HeLa S3 cells is “essentially no cytotoxicity”.

`Cc1ncnc2c1ccn2[C@@H]1O[C@H](COP(=O)(O)OP(=O)(O)OP(=O)(O)O)[C@@H](O)[C@H]1O` [Compound 9, 4-Methyl-7-β-D-ribofuranosylpyrrolo[2,3-d]pyrimidine 5'-triphosphate]: at PV RdRP [2], the “Efficiency kpol/Kd,app” value was 50000 M⁻¹ s⁻¹; the “Efficiency relative to natural ATP” value is reported as “only ten-fold lower than natural ATP”; the “Incorporation opposite C by PV RdRP, rate” value is “extremely slow”; the “Substrate of PV RdRP” value was “robust substrates; also recorded: efficient substrate”. At PV RdRP [2], this compound gave a kpol of 6 ± 0.5 s⁻¹. For the same compound, at PV RdRP (3D^pol) [3], the “Inhibition of PV RdRP” value is “neither 8 nor 9 inhibit PV RdRP” and the “kcat compared with natural correct nucleotides” value is given as “increases in kcat”. Further, on PV RdRP (3D^pol) [4], the “Incorporation efficiency across from uracil” value is on record as “comparable to natural ATP”; the “Incorporation opposite adenine and guanine” value is given as “almost no incorporation”; the “RNA chain termination (extension of RNA oligomers to +4)” value was “neither of these compounds functions as a RNA chain terminator”.

With `NC(=O)c1ncn([C@@H]2O[C@H](COP(=O)(O)OP(=O)(O)OP(=O)(O)O)[C@@H](O)[C@H]2O)n1` [RTP, ribavirin triphosphate], at PV RdRP [5], the “Efficiency kpol/Kd,app” value is 30 M⁻¹ s⁻¹ and the kpol is 0.014 ± 0.001 s⁻¹. Also, the “Efficiency relative to 8 or 9” value on PV RdRP [2] is reported as “approximately three orders magnitude lower”.

In the case of `Cc1ncnc2c1ccn2[C@@H]1O[C@H](CO)[C@@H](O)[C@H]1O` [Compound 6, 4-Methyl-7-β-D-ribofuranosylpyrrolo[2,3-d]pyrimidine], the selectivity ratio in the data set on poliovirus (PV) [6] is over 100. The viability at 100 µM in the data set “in vitro” turned out to be 33%.

For `Cc1ncnc2c1ncn2[C@@H]1O[C@H](CO)[C@@H](O)[C@H]1O` [Compound 2, 6-methyl-9-β-D-ribofuranosylpurine, reference compound], the “Cytotoxic effects” value in the data set on HeLa S3 cells was “pronounced effects”. Also, the “Toxicity relative to 3 (fold less toxic)” value in the data set with HeLa S3 cells (human) is recorded as ~ 5 fold.

On to `Nc1ncnc2c1ncn2[C@@H]1O[C@H](COP(=O)(O)OP(=O)(O)OP(=O)(O)O)[C@@H](O)[C@H]1O` [ATP, adenosine triphosphate], for which, at PV RdRP [5], the “Efficiency kpol/Kd,app” value was 650000 M⁻¹ s⁻¹ and the kpol was 87 ± 4 s⁻¹.

Regarding `Cc1ccnc2c1ncn2[C@@H]1O[C@H](CO)[C@@H](O)[C@H]1O` [Compound 4, 7-Methyl-3-β-D-ribofuranosyl-3H-imidazo[4,5-b]pyridine], the “Inhibition of DENV2 replicon activity” value in the data set on DENV2 replicon is “essentially no inhibition”. In the data set with poliovirus (PV) [1], the “Activity against PV” value was “inactive”. Further, in the data set with HeLa S3 cells, the “Cytotoxic effects” value is listed as “little cytotoxicity” and the “Cytotoxicity” value was “essentially no cytotoxicity”.

For `Nc1ncnc2c1ccn2[C@@H]1O[C@H](CO)[C@@H](O)[C@H]1O` [Compound 3, tubercidin, reference compound], in the data set on HeLa S3 cells, the “Cytotoxic effects” value is listed as “pronounced effects”.

Consider `Cc1ncnc2c1ncn2[C@@H]1O[C@H](COP(=O)(O)OP(=O)(O)OP(=O)(O)O)[C@@H](O)[C@H]1O` [Compound 8, 6-methyl-9-β-D-ribofuranosylpurine 5'-triphosphate], for which, at PV RdRP [2], the “Efficiency kpol/Kd,app” value worked out at 60000 M⁻¹ s⁻¹; the “Efficiency relative to natural ATP” value is listed as “only ten-fold lower than natural ATP”; the “Incorporation opposite C by PV RdRP, rate” value is “extremely slow”; the “Substrate of PV RdRP” value is recorded as “robust substrates”. The kpol at PV RdRP [2] turned out to be 11 ± 0.3 s⁻¹. At PV RdRP (3D^pol) [3], the “Inhibition of PV RdRP” value was “neither 8 nor 9 inhibit PV RdRP” and the “kcat compared with natural correct nucleotides” value is on record as “increases in kcat”. At PV RdRP (3D^pol) [4], the “Incorporation efficiency across from uracil” value was “comparable to natural ATP”; the “Incorporation opposite adenine and guanine” value is on record as “almost no incorporation”; the “RNA chain termination (extension of RNA oligomers to +4)” value is “neither of these compounds functions as a RNA chain terminator”.

With `C[C@@]1(O)[C@H](O)[C@@H](CO)O[C@H]1n1ccc2c(N)ncnc21` [7-deaza-2'-C-methyladenosine], the IC50 in the data set with hepatitis C virus (HCV) is 108 nM.

Regarding `C#C[C@@]1(O)[C@H](O)[C@@H](CO)O[C@H]1n1ccc2c(N)ncnc21` [NITD008, 7-deaza-2'-C-ethynyladenosine], in data set [7], the IC50 was 640 nM.
